According to US10471076B2, “Compositions and methods to treat vision disorders” (YouHealth Biotech, Limited, priority 2014, dated 2019):
Where “and” joins values, the source holds several entries; their conditions need not be identical. Equal values may be shown once. Entries after “also recorded” stand apart in the source; their conditions may differ.

Assays:
[1] = test system: naturally occurring cataractous lenses from rabbits; assay: Treatment of isolated cataractous rabbit lenses; set-up: key to cataract grade before treatment / cataract grade after treatment: Grade 0: absence of opacification (gridlines clearly visible); Grade 1: a slight degree of opacification (minimal clouding of gridlines, with gridlines still visible); Grade 2: presence of diffuse opacification involving almost the entire lens (moderate clouding of gridlines, with main gridlines visible); Grade 3: presence of extensive, thick opacification involving the entire lens (total clouding of gridlines, with gridlines not seen at all)
Description: FIG. 12A, FIG. 12B, and FIG. 12C show grading system of cataractous lenses. […] The degree of transparency was scored as 0, a clear lens and absence of opacification (gridlines clearly visible, a′); 1, a blurry lens and a slight degree of opacification (minimal clouding of gridlines, with gridlines still visible, b′); 2, a cloudy lens and presence of diffuse opacification involving almost the entire lens (moderate clouding of gridlines, with main gridlines visible, c′); or 3, an opaque lens and presence of extensive thick opacification involving the entire lens (total clouding of gridlines, with gridlines not seen at all, d′). […] Rabbit lenses (n=13) were dissected and incubated with lanosterol for 6 days and subsequently assessed for lens clarity and transparency. Pairs of photographs of each cataractous rabbit lens showing before and after treatment with scores underneath are shown. […] Dog eyes with cataracts (n=7) were treated with lanosterol for 6 weeks and assessed for lens clarity and transparency. A pair of photographs of each study eye before and after treatment is shown with scores underneath. Three control eyes treated with vehicles alone are also presented.
Treatment of cataractous rabbit lenses. Rabbits were euthanized by CO2 inhalation and lenses were immediately dissected and treated with vehicle or lanosterol dissolved in vehicle to make 25 mM solutions. Lens tissues were incubated in these solutions for 6 days in the dark at room temperature. Cataracts were examined under a microscope and photographed. Degree of cataract was assessed by a blinded examiner using a previously described opacification grading system, shown below^32,33. Improvements in lens clarity and transparency were quantified by visual inspection and grading. Lens clarity was scored by transmission of light, clarity of a grid image underneath the lens (FIG. 12A, FIG. 12B, FIG. 12C), and improvement in overall clarity of a lens or improvement in clarity of localized areas of cortical cataract. Wilcoxon test was used to evaluate the treatment effect.
Cataract grading system. […]

[2] = test system: amyloid-like fibrils of crystallin proteins; assay: Re-dissolution of pre-formed amyloid-like fibrils (ThT fluorescence, TEM, turbidity); assay type: biochemical, human; settings: 0.2 mg/ml aggregates; 500 μM sterols in 500 μM DPPC liposome (b129 prints 500 mM), 37° C., 24 h; TEM and ThT fluorescence; concentration-dependent
Description: Crystallin aggregates were formed by incubating 5 mg ml^−1 protein solution at 60° C. for 2 h (α-crystallins) or 37° C. for 48 h (β- and γ-crystallins) in the presence of 1 M guanidine chloride. The preformed aggregates were re-suspended in PBS at a final protein concentration of 0.2 mg ml^−1 and were treated with 500 μM sterols in 500 μM DPPC liposome and incubated at 37° C. for 24 h. Aggregates treated with 500 μM DPPC liposome only were used as the controls. […] Aggregates treated with 500 μM DPPC liposome only were used as the controls.
All protein samples were prepared in 20 mM PBS buffer containing 150 mM NaCl, 1 mM EDTA and 1 mM DTT.
Protein aggregation and aggregate dissociation. The aggregates of the wild-type and mutated αA- and αB-crystallin proteins were obtained by heating the protein solutions containing 1 M guanidine chloride (ultrapure, Sigma-Aldrich) at a con-centration of 5 mg/ml at 60° C. for 2 h. The aggregates of the wild-type and mutated b- and c-crystallins were prepared by heating the protein solutions containing 1 M guanidine chloride at 37° C. for 48 h. The formation of aggregates was confirmed by ThT fluorescence, turbidity (absorbance at 400 nm) and transmission electron microscopy (TEM) observations. […] After 24 h of treatment, the protein solutions were used for ThT fluorescence, turbidity and negatively stained TEM observations. […]

[3] = test system: cataract-causing mutant crystallins; assay: Western blot of soluble and insoluble fractions of cell lysates; assay type: cell-based; settings: human lens progenitor cells, n=3, P<0.001
Description: The cells were harvested and lysed. Supernatant and insoluble fractions were separated by centrifugation and analyzed by western blot analysis. LSS and crystallin fusion proteins were identified by antibodies against Flag and GFP tags, respectively. The lanosterol-treated group is highlighted by red boxes. Cells treated with 1% DMSO were used as a control. β-Actin was used as an internal protein loading control of total cell lysates (TCL). S, supernatant; P, insoluble fraction. […] Crystallin aggregates were formed by incubating 5 mg ml^−1 protein solution at 60° C. for 2 h (α-crystallins) or 37° C. for 48 h (β- and γ-crystallins) in the presence of 1 M guanidine chloride. The preformed aggregates were re-suspended in PBS at a final protein concentration of 0.2 mg ml^−1 and were treated with 500 μM sterols in 500 μM DPPC liposome and incubated at 37° C. for 24 h. […] Aggregates treated with 500 μM DPPC liposome only were used as the controls.
LC-MS analysis. […] The derived samples were analyzed by an Agilent 1290/6460 triple quadrupole LC/MS using an alternative Atmospheric Pressure Chemical Ionisation (APCI) source. […] Quantification of the western blot bands was achieved using the software GELPRO (Media Cybernetics). The presented quantitative data were calculated from three independent experiments.

## CC(C)=CCC[C@@H](C)[C@H]1CC[C@@]2(C)C3=C(CC[C@]12C)[C@@]1(C)CC[C@H](O)C(C)(C)[C@@H]1CC3 [lanosterol, 3β-Hydroxy-8,24-lanostadiene; 8,24-Lanostadien-3β-ol]
[1]; isolated rabbit lens incubated in 25 mM lanosterol solution for 6 days, n=13
  cataract grade after treatment: 1 and 0
[1]; isolated rabbit lens, baseline of each lanosterol-treated sample, n=13
  cataract grade before treatment: 2 and 1 and 3
[1]; isolated rabbit lenses, 25 mM lanosterol, 6 days, P<0.003, Wilcoxon Test
  cataract severity / lens clarity: strong trend of reduction in cataract severity; also recorded: reduced cataract severity and increased clarity
[2]
  re-dissolution of aggregated crystallin proteins from amyloid-like fibrils: successfully re-dissolved the aggregated crystallin proteins
[3]
  amount of mutant crystallins in the soluble fractions of cell lysates: increased the amounts of mutant crystallins in the soluble fractions; also recorded: increased cataract-causing mutant crystallins in soluble fractions
